Test results published in patent US20180008688A1, “METHOD AND COMPOSITIONS FOR ENHANCING IMMUNOTHERAPEUTIC TREATMENT OF A CANCER” (Augusta University Research Institute, Inc., priority 2016, published 2018).

Tested on: OT-I T cells
Test: Autoimmune diabetes in RIP-mOVA mice after OT-I T cell transfer (no tumor)
Format: in vivo, mouse
Experimental: Accordingly and without wishing to be bound by any one hypothesis, it is likely that p53 can play two different immunologic roles, depending on the context (tumor versus normal tissues). […] Following T cell transfer, these mice progressively developed lethal autoimmune diabetes. However, if mice were treated with nutlin-3a diabetes formation was suppressed and the mice remained healthy.

COc1ccc(C2=NC(c3ccc(Cl)cc3)C(c3ccc(Cl)cc3)N2C(=O)N2CCNC(=O)C2)c(OC(C)C)c1 (single isomer, unassigned; (-)) [nutlin-3a, (−)-4-(4,5-Bis(4-chlorophenyl)-2-(2-isopropoxy-4-methoxyphenyl)-4,5-dihydro-1H-imidazole-1-carbonyl)piperazin-2-one]
level of p53 in OT-I cells in pancreatic LNs (mouse, in vivo): increased | diabetes formation (nutlin-3a treatment after OT-I transfer): suppressed | expression of granzyme B in OT-I cells (pancreatic LNs): decreasing
